Experimental data taken from ChEMBL document CHEMBL5154649, “Design, synthesis, and characterization of novel aminoalcohol quinolines with strong in vitro antimalarial activity” (Eur J Med Chem, 2022).

Tested on: Plasmodium falciparum
Test: Antiplasmodial activity against CQ-resistant Plasmodium falciparum W2 assessed as inhibition of parasite growth measured after 48 hrs by SYBR Green 1 dye based fluorescence assay
Type: functional, organism-based
Settings: W2, 48 h

Question: Which IC50 does the source give for O[C@H](CN1CCN(C[C@@H](O)c2cc(C(F)(F)F)nc3c(C(F)(F)F)cccc23)CC1)c1cc(C(F)(F)F)nc2c(C(F)(F)F)cccc12 here?
Answer: 707 nM

Question: How did the IC50 turn out when CC(C)(CO)NC[C@@H](O)c1cc(C(F)(F)F)nc2c(C(F)(F)F)cccc12 was run?
Answer: 137 nM

Question: For NCCNC[C@H](O)c1cc(C(F)(F)F)nc2c(C(F)(F)F)cccc12, which IC50 is on record?
Answer: > 1000 nM

Question: With OC[C@H](NC[C@H](O)c1cc(C(F)(F)F)nc2c(C(F)(F)F)cccc12)c1ccccc1 as the compound, how does the IC50 read?
Answer: 29.9 nM

Question: Which IC50 does the source give for O[C@@H](CNCCCCCCCCCCCCNC[C@H](O)c1cc(C(F)(F)F)nc2c(C(F)(F)F)cccc12)c1cc(C(F)(F)F)nc2c(C(F)(F)F)cccc12 here?
Answer: > 1000 nM

Question: Which IC50 does the source give for C[C@@H](CO)NC[C@H](O)c1cc(C(F)(F)F)nc2c(C(F)(F)F)cccc12 (single isomer, unassigned) here?
Answer: 51.7 nM

Question: With O[C@H](CNCCN1CCN(C[C@@H](O)c2cc(C(F)(F)F)nc3c(C(F)(F)F)cccc23)CC1)c1cc(C(F)(F)F)nc2c(C(F)(F)F)cccc12 as the compound, how does the IC50 read?
Answer: 61.8 nM

Question: For O[C@@H](CNCCCN1CCN(CCCNC[C@H](O)c2cc(C(F)(F)F)nc3c(C(F)(F)F)cccc23)CC1)c1cc(C(F)(F)F)nc2c(C(F)(F)F)cccc12, which IC50 is on record?
Answer: 321 nM

Question: With O[C@H](CNCCCN1CCN(CCCNC[C@@H](O)c2cc(C(F)(F)F)nc3c(C(F)(F)F)cccc23)CC1)c1cc(C(F)(F)F)nc2c(C(F)(F)F)cccc12 as the compound, how does the IC50 read?
Answer: 534 nM

Question: How did the IC50 turn out when OC[C@@H](NC[C@@H](O)c1cc(C(F)(F)F)nc2c(C(F)(F)F)cccc12)c1ccccc1 was run?
Answer: 9.8 nM

Question: OC[C@H](NC[C@@H](O)c1cc(C(F)(F)F)nc2c(C(F)(F)F)cccc12)c1ccccc1 was tested. Which IC50 did it give?
Answer: 10.1 nM

Question: How did the IC50 turn out when O[C@@H](CNCCN1CCN(C[C@H](O)c2cc(C(F)(F)F)nc3c(C(F)(F)F)cccc23)CC1)c1cc(C(F)(F)F)nc2c(C(F)(F)F)cccc12 was run?
Answer: 182 nM

Tested on: Plasmodium falciparum
Test: Selectivity index, ratio of IC50 for antiplasmodial activity against CQ-susceptible Plasmodium falciparum 3D7 to IC50 for antiplasmodial activity against CQ-resistant Plasmodium falciparum W2 by SYBR Green 1 dye based fluorescence assay
Type: functional
Settings: not given

Question: How did the Ratio IC50 turn out when O[C@H](CN1CCN(C[C@@H](O)c2cc(C(F)(F)F)nc3c(C(F)(F)F)cccc23)CC1)c1cc(C(F)(F)F)nc2c(C(F)(F)F)cccc12 was run?
Answer: 1.35

Question: Which Ratio IC50 does the source give for CC(C)(CO)NC[C@@H](O)c1cc(C(F)(F)F)nc2c(C(F)(F)F)cccc12 here?
Answer: 1.9

Question: OC[C@H](NC[C@H](O)c1cc(C(F)(F)F)nc2c(C(F)(F)F)cccc12)c1ccccc1 was tested. Which Ratio IC50 did it give?
Answer: 4.55

Question: For C[C@@H](CO)NC[C@H](O)c1cc(C(F)(F)F)nc2c(C(F)(F)F)cccc12 (single isomer, unassigned), which Ratio IC50 is on record?
Answer: 2.7

Question: O[C@H](CNCCN1CCN(C[C@@H](O)c2cc(C(F)(F)F)nc3c(C(F)(F)F)cccc23)CC1)c1cc(C(F)(F)F)nc2c(C(F)(F)F)cccc12 was tested. Which Ratio IC50 did it give?
Answer: 5.8

Question: O[C@@H](CNCCCN1CCN(CCCNC[C@H](O)c2cc(C(F)(F)F)nc3c(C(F)(F)F)cccc23)CC1)c1cc(C(F)(F)F)nc2c(C(F)(F)F)cccc12 was tested. Which Ratio IC50 did it give?
Answer: > 3.1

Question: O[C@H](CNCCCN1CCN(CCCNC[C@@H](O)c2cc(C(F)(F)F)nc3c(C(F)(F)F)cccc23)CC1)c1cc(C(F)(F)F)nc2c(C(F)(F)F)cccc12 was tested. Which Ratio IC50 did it give?
Answer: > 1.9

Question: Which Ratio IC50 does the source give for OC[C@@H](NC[C@@H](O)c1cc(C(F)(F)F)nc2c(C(F)(F)F)cccc12)c1ccccc1 here?
Answer: 9.6

Question: With OC[C@H](NC[C@@H](O)c1cc(C(F)(F)F)nc2c(C(F)(F)F)cccc12)c1ccccc1 as the compound, how does the Ratio IC50 read?
Answer: 10.3

Question: With O[C@@H](CNCCN1CCN(C[C@H](O)c2cc(C(F)(F)F)nc3c(C(F)(F)F)cccc23)CC1)c1cc(C(F)(F)F)nc2c(C(F)(F)F)cccc12 as the compound, how does the Ratio IC50 read?
Answer: 2.5

Tested on: Plasmodium falciparum
Test: Antiplasmodial activity against CQ-susceptible Plasmodium falciparum 3D7 assessed as inhibition of parasite growth measured after 48 hrs by SYBR Green 1 dye based fluorescence assay
Type: functional, organism-based
Settings: 3D7, 48 h

Question: With O[C@H](CN1CCN(C[C@@H](O)c2cc(C(F)(F)F)nc3c(C(F)(F)F)cccc23)CC1)c1cc(C(F)(F)F)nc2c(C(F)(F)F)cccc12 as the compound, how does the IC50 read?
Answer: 953 nM

Question: Which IC50 does the source give for CC(C)(CO)NC[C@@H](O)c1cc(C(F)(F)F)nc2c(C(F)(F)F)cccc12 here?
Answer: 254 nM

Question: How did the IC50 turn out when NCCNC[C@H](O)c1cc(C(F)(F)F)nc2c(C(F)(F)F)cccc12 was run?
Answer: > 1000 nM

Question: Which IC50 does the source give for OC[C@H](NC[C@H](O)c1cc(C(F)(F)F)nc2c(C(F)(F)F)cccc12)c1ccccc1 here?
Answer: 136 nM

Question: For O[C@@H](CNCCCCCCCCCCCCNC[C@H](O)c1cc(C(F)(F)F)nc2c(C(F)(F)F)cccc12)c1cc(C(F)(F)F)nc2c(C(F)(F)F)cccc12, which IC50 is on record?
Answer: > 1000 nM

Question: With C[C@@H](CO)NC[C@H](O)c1cc(C(F)(F)F)nc2c(C(F)(F)F)cccc12 (single isomer, unassigned) as the compound, how does the IC50 read?
Answer: 138 nM

Question: Which IC50 does the source give for O[C@H](CNCCN1CCN(C[C@@H](O)c2cc(C(F)(F)F)nc3c(C(F)(F)F)cccc23)CC1)c1cc(C(F)(F)F)nc2c(C(F)(F)F)cccc12 here?
Answer: 361 nM

Question: Which IC50 does the source give for O[C@@H](CNCCCN1CCN(CCCNC[C@H](O)c2cc(C(F)(F)F)nc3c(C(F)(F)F)cccc23)CC1)c1cc(C(F)(F)F)nc2c(C(F)(F)F)cccc12 here?
Answer: > 1000 nM

Question: O[C@H](CNCCCN1CCN(CCCNC[C@@H](O)c2cc(C(F)(F)F)nc3c(C(F)(F)F)cccc23)CC1)c1cc(C(F)(F)F)nc2c(C(F)(F)F)cccc12 was tested. Which IC50 did it give?
Answer: > 1000 nM

Question: For OC[C@@H](NC[C@@H](O)c1cc(C(F)(F)F)nc2c(C(F)(F)F)cccc12)c1ccccc1, which IC50 is on record?
Answer: 94.4 nM

Question: OC[C@H](NC[C@@H](O)c1cc(C(F)(F)F)nc2c(C(F)(F)F)cccc12)c1ccccc1 was tested. Which IC50 did it give?
Answer: 103 nM

Question: How did the IC50 turn out when O[C@@H](CNCCN1CCN(C[C@H](O)c2cc(C(F)(F)F)nc3c(C(F)(F)F)cccc23)CC1)c1cc(C(F)(F)F)nc2c(C(F)(F)F)cccc12 was run?
Answer: 453 nM
